Data reported in patent US20060106042A1, “Substituted heterocyclpyrmidines” (priority 2002, published 2006).
Like-named read-outs stand apart in the source and are kept apart here.

Legend:
[1] = test system: greenhouse red spider mite (Tetranychus urticae); assay: Tetranychus test (OP-resistant/dip treatment); format: in vivo; settings: 168 h, 100 ppm, after 7 d, OP-resistant, bean plants dipped, read-out: Kill rate in % after 7 d
Description: Tetranychus Test (OP-Resistant/Dip Treatment)
(§1) • Solvent: 7 parts by weight of dimethylformamide • Emulsifier: 2 parts by weight of alkylaryl polyglycol ether
After the desired period of time, the effect in % is determined. 100% means that all spider mites have been killed; 0% means that none of the spider mites have been killed.

[2] = logP determination by reversed-phase HPLC (EEC Directive 79/831 Annex V.A8); format: physicochemical
From the text: (a) Mobile phases for the determination of the acidic range: 0.1% aqueous phosphoric acid, acetonitrile; linear gradient from 10% acetonitrile to 90% acteonitrile—the corresponding measurement results in Table 1 are marked^a). […]

[3] = test system: caterpillars of the diamondback moth (Plutella xylostella); assay: Plutella test (cabbage leaves, dip); format: in vivo; settings: 500 ppm, cabbage leaves dipped
Description: as §1
(§2) To produce a suitable preparation of active compound, 1 part by weight of active compound is mixed with the stated amounts of solvent and emulsifier, and the concentrate is diluted with emulsifier-containing water to the desired concentration.
Cabbage leaves (Brassica oleracea) are treated by being dipped into the preparation of active compound of the desired concentration and are populated with caterpillars of the diamondback moth (Plutella xylostella) while the leaves are still moist.
(§3) After the desired period of time, the kill in % is determined. 100% means that all caterpillars have been killed; 0% means that none of the caterpillars have been killed.

[4] = test system: larvae of the mustard beetle (Phaedon cochleariae); assay: Phaedon larvae test (cabbage leaves, dip); format: in vivo; settings: 168 h, after 7 d, cabbage leaves dipped, read-out: Kill rate in % after 7 d
Description: as §1
After the desired period of time, the kill in % is determined. 100% means that all beetle larvae have been killed; 0% means that none of the beetle larvae have been killed.

[5] = test system: peach aphid (Myzus persicae); assay: Myzus test (cabbage leaves, dip); format: in vivo; settings: 500 ppm, cabbage leaves dipped
Description: as §1, §2
Cabbage leaves (Brassica oleracea) which are heavily infested by the peach aphid (Myzus persicae) are treated by being dipped into the preparation of active compound of the desired concentration.
After the desired period of time, the kill in % is determined. 100% means that all aphids have been killed; 0% means that none of the aphids have been killed.

[6] = test system: Heliothis armigera caterpillars; assay: Heliothis armigera test (soya bean shoots, dip); format: in vivo; settings: 500 ppm, soya bean shoots dipped
Description: as §1, §2
Soya bean shoots (Glycine max) are treated by being dipped into the preparation of active compound of the desired concentration and are populated with Heliothis annigera caterpillars while the leaves are still moist.
as §3

[7] = test system: cotton aphid (Aphis gossypii); assay: Aphis gossypii test (cotton leaves, dip); format: in vivo; settings: 500 ppm, cotton leaves dipped
Description: as §1, §2
Cotton leaves (Gossypium hirsutum) which are heavily infested by the cotton aphid (Aphis gossypii) are treated by being dipped into the preparation of active compound of the desired concentration.
After the desired period of time, the kill in % is determined. 100% means all aphids have been killed; 0% means that none of the aphids have been killed.

[8] = test system: caterpillars of the armyworm (Spodoptera frugiperda); assay: Spodoptera frugiperda test (cabbage leaves, dip); format: in vivo; settings: 168 h, after 7 d, cabbage leaves dipped, read-out: Kill rate in % after 7 d
Description: Spodoptera frugiperda Test
as §1, §3

[9] = reversed-phase HPLC column (C18), pH 2.3, read-out: logP (pH 2.3)
[10] = reversed-phase HPLC column (C18); acidic range: 0.1% aqueous phosphoric acid/acetonitrile gradient, C18, 43° C.; read-out: logP a)

SMILES | pest or weed control at 100 ppm [1] | chromatographic logP [2, 9] | Kill rate in % after 7 d [3] | pest or weed control at 500 ppm [4] | Kill rate in % after 6 d [5] | Kill rate in % after 7 d [6] | Kill rate in % after 6 d [7] | chromatographic logP [2, 10] | pest or weed control at 500 ppm [8]
FC(F)=CCCSc1nccc(-n2cccn2)n1 [Example 1, 2-[(4,4-difluoro-3-butenyl)-sulfanyl]-4-(pyrazol-1-yl)-pyrimidine] | 100% | 3.3 | 100% | 100% | 99% | 100% | – | – | –
FC(F)=CCCSc1nccc(-c2ccccn2)n1 [Example 2] | – | 3.33 | – | 100% | 100% | – | 99% | – | –
FC(F)=CCCSc1nccc(-c2nccc3ccccc23)n1 [Example 7] | 100% | – | 100% | – | 100% | – | 98% | 3.67 | –
COc1ccnc(-c2ccnc(SCCC=C(F)F)n2)c1 [Example 8] | – | – | – | – | 95% | – | 99% | 2.41 | –
FC(F)=CCCSc1nccc(-n2ccnn2)n1 [Example 25] | 100% | – | 100% | – | – | 100% | – | 2.62 | –
FC(F)=CCCSc1nccc(-n2nccn2)n1 [Example 26] | – | – | – | – | 99% | – | 95% | 2.7 | 100%
COc1cccnc1-c1ccnc(SCCC=C(F)F)n1 [Example 37] | 100% | – | 100% | – | – | 100% | – | 2.14 | –
